Experimental data published in PMC10733307, “Dual species sphingosine-1-phosphate lyase inhibitors to combine antifungal and anti-inflammatory activities in cystic fibrosis: a feasibility study” (Scientific Reports, 2023).

Columns and labels:
[1] = test system: N[C@@H](COP(=O)(O)O)[C@H](O)CCOc1ccc2ccc(=O)oc2c1; assay: purified protein; conditions: 100 mM Hepes pH 7.4, 0.1 mM EDTA, 0.05% Triton X-100, 100 μM PLP, 37 °C
AfuSPL [2] = target: T1, AfuSPL (Aspergillus fumigatus, UniProt Q4WPU3); assay: fluorimetric lyase assay, global fit to competitive inhibition model; assay type: biochemical
T1 construct: gene AFUA_4G10470; cytosolic catalytic domain, Δ1-81, C-terminal His tag, pET28, E. coli BL21 with GroEL/GroES (pGro7), about 50 kDa subunit, dimer
T1 sequence (Q4WPU3 82-572): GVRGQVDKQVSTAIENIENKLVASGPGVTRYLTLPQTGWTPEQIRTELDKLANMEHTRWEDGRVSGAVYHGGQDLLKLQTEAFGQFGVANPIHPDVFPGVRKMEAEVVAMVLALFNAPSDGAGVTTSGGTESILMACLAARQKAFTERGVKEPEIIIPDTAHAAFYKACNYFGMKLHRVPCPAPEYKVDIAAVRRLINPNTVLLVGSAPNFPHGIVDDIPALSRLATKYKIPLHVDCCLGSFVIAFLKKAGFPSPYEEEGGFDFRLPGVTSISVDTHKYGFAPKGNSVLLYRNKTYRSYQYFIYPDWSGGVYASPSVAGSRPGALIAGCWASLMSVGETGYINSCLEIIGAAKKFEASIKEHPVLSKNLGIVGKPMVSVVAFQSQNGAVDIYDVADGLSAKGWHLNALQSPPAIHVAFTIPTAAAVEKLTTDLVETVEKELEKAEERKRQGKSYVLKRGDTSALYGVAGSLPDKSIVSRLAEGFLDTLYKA
Source text: fluorimetric lyase assay, global fit to competitive inhibition model on AfuSPL | From a global fitting of the data we estimated their KI values

hSPL = target: T2, hSPL (Homo sapiens, UniProt O95470); assay: as above; assay type: biochemical
T2 construct: gene SGPL1
T2 sequence (O95470 81-568): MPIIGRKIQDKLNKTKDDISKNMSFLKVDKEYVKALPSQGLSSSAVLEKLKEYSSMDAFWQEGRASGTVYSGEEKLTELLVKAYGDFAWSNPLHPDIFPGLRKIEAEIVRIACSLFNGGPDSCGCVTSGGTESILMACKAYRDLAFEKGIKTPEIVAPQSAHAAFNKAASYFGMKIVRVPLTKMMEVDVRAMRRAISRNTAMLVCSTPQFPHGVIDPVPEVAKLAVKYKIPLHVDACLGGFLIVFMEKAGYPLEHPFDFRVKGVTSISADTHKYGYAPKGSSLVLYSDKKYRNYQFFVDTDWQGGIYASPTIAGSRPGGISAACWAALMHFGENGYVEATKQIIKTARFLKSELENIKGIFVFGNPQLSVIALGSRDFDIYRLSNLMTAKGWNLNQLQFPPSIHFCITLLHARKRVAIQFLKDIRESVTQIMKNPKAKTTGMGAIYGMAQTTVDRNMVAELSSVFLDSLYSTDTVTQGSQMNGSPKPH
Source text: fluorimetric lyase assay, global fit to competitive inhibition model on hSPL | From a global fitting of the data we estimated their KI values

AfuSPL [3] = target: T1, AfuSPL; assay: fluorimetric lyase assay; assay type: biochemical; conditions: 1 mM inhibitor, fluorogenic S1P substrate, pH 7.4, 37 °C

## AfuSPL (Aspergillus fumigatus Af293)
[1]
  Km: 3.1 ± 0.4 mM
  kcat: 0.103 ± 0.007 s⁻¹

## CCCOC(=O)c1c(NC(=O)CCCC(=O)Nc2sc3c(c2C(=O)OCCC)CCCCC3)sc2c1CCCCC2 [C17]
AfuSPL [2]
  Ki: 270 ± 80 µM
hSPL
  Ki: 240 ± 50 µM

## C[C@@H]1CN(c2nnc(Cc3ccccc3)c3ccc(Cl)cc23)CCN1c1ccc(C#N)cn1 [30J, 6-[(2R)-4-(4-benzyl-7-chlorophthalazin-1-yl)-2-methylpiperazin-1-yl]pyridine-3-carbonitrile]
AfuSPL [3]
  % inhibition at 1 mM: without any significant effect on the activity of AfuSPL
